# Earlier results, collected in US20040266797A1, “Use of potent,selective and non toxic c-kit inhibitors for treating tumor angiogensis” (priority 2001, published 2004).
# Tested on: tumor growth
# Conditions: inhibiting mast cell degranulation
smiles,measurement,value
O=C([O-])c1cc(=O)c2c(OCC(O)COc3cccc4oc(C(=O)[O-])cc(=O)c34)cccc2o1.[Na+].[Na+] [disodium cromoglycate],tumor growth,significantly depresse tumor growth
